Usually melting point stands for the temperature of the solid-liquid transition.

Data on 2 compounds can be found in patent US20240284907A1, “NOVEL DERIVATIVES OF NON-CODED AMINO ACIDS AND THEIR USE AS HERBICIDES” (FortePhest LTD., priority 2021, published 2024).

Data set [1] deals with Romaine lettuce (Lactuca sativa L.) plants. Nature of the data set: Post-emergence herbicidal activity on potted Romaine lettuce plants (soil or foliar application). The following applies: lettuce at 2 to 3 leaves, two weeks after treatment. It is filed as in vivo. The method in brief: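 Potted lettuce at the 2-3 leaf stage received compound in 0.1% aqueous Silwet, up to 0.0001%, applied to soil (1 ml/pot) or sprayed on foliage (0.1 ml/pot), 20 plants per concentration. Visual scoring and aboveground wet weight after two weeks; growth inhibition from median weights versus control.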

Data set [2] concerns Seeds of Lettuce R. (Super-Jericho). Nature of the data set: Filter paper bioassay with lettuce seeds: germination and early plant development, Minimal Effective Concentration (MEC). Format: in vivo. The following applies: lettuce seeds on filter paper, 0 to 1 mmol/l, visually assessed after 6 days. In a few lines: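 Non-sterilized Super-Jericho lettuce seeds, 10 per dish, on filter paper wetted with aqueous test solution at 0–1 mmol/l. Kept 48 h dark, then 4 days at 6/18 dark/light. MEC is the lowest concentration causing no germination or radicle/shoot malformation by visual scoring at day 6; at least two repeats.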

In data set [3] the test system is Romaine lettuce (Lactuca sativa L.) plants. Nature of the data set: Comparison of NAA and DNAA: growth inhibition of potted Romaine lettuce plants. To be noted: two weeks after treatment. It is filed as in vivo. The procedure: The tests were performed on Romaine lettuce (Lactuca sativa L.) plants at the stage 2 to 3 leaves. The plants were grown in mini-pots packed with soil, dimensions 2×2×5 cm, one plant per mini-pot. Test compounds were dissolved in 0.1% aqueous solution water solution of Silwet adjuvant. The test material where applied in rate 0 (Control), 0.01, 0.05, and 0.5 mg/pot. The test compounds were applied on soil or foliar with airbrush (0.1 ml per pot). Each concentration was tested on 20 plants. Two weeks after the treatment the herbicidal effects of the respective test material were visually evaluated (aboveground part and roots. Then the aboveground part of the plants was neatly cut and weighed (wet weight) to assess the growth inhibition caused by the test compound. The growth inhibition (GI) was calculated as following: […]
Where Mt and Mc are median wet weight of treated and control plants, respectively.

Data set [4] deals with Chenopodium. Nature of the data set: Herbicidal effect on potted weeds, plant development score. Format: in vivo. To be noted: pre-emergence, soil application 1 mg/pot; scale 0 (dead plants) to 5 (healthy, as Control). The method, then: (§1) Weed seeds were sawn in 0.3-liter pots, containing medium-heavy clay-loam soil from organic fields (55% clay, 23% silt, 20% sand, 2% organic matter, pH 7.1). The experiment was conducted in a completely randomized design. Each treatment was replicated 3 times (3 pots). Each compound was typically tested on crops (Corn, Wheat, Soy, Cotton, Oat, Chickpea) and weeds (Amaranth, Chenopodium, Lentils, Sinapis, Silybum).
(§2) The herbicides were applied at dose from 0 (control) to 5 mg/pot. The treatment was performed at the day of sawn (pre-emergence treatment). Then the pots were transferred to a mesh house 24 hours after herbicide application and were sprinkler irrigated to field capacity of the soil. Alternatively, the herbicides were applied on grown plants at stage 2-3 true leaves (post-emergence treatment).
(§3) The plants were grown in the mesh house during the entire experiment. Plant development at 6, 12, 19, 26 and 32 days after application (DAA) were evaluated on a scale of 0 to 5, in which 0 represents dead plants and 5 represents healthy plants similar or not different from Control. In the context of the invention, the herbicidal effect was expressed as a score calculated as an average of assessments of plants vigor, height, and leaf color.

In data set [5] the test system is Sinapis. Described as above. It is filed as in vivo. To be noted: post-emergence, soil application 1 mg/pot; scale 0 (dead plants) to 5 (healthy, as Control). The procedure:
as §1, §2, §3

In data set [6] the test system is Silybum. The data set is described as above. Format: in vivo. The following applies: soil application 1 mg/pot, scale 0 (dead plants) to 5 (healthy, as Control). The procedure:
as §1, §2, §3

Data set [7] has as its system Lentils. The description is as above. It is filed as in vivo. To be noted: soil application 1 mg/pot, scale 0 (dead plants) to 5 (healthy, as Control). The procedure: as §1, §2, §3
Data set [8] deals with Amaranth. The description is as above. It is filed as in vivo. To be noted: soil application 1 mg/pot, scale 0 (dead plants) to 5 (healthy, as Control). The method, then: as §1, §2, §3
For data set [9], the system named is Seeds of Lettuce R. (Super-Jericho). Nature of the data set: Filter paper bioassay with lettuce seeds: germination, Fully Effective Concentration (FEC). Format: in vivo. To be noted: lowest concentration mostly preventing lettuce seed germination, assessed after 6 days. The method in brief:
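Ten lettuce seeds per Petri dish on filter paper with 2.0 ml aqueous test solution, 0 to 1 mmol/l, kept 48 hours dark then 4 days at 6/18 dark/light. Radicle and shoot assessed visually at day 6; FEC is the lowest concentration mostly preventing germination.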

In the case of “(2,5-dichlorothiophen-3-yl)(difluoro)acetic acid [compound 5640]”, the “Score (test material causing more than 85% of Growth Inhibition or irreversible plant damage)” value in data set [1] (foliar application) and in data set [1] (soil application) was “strong (0.01 to 0.05)” throughout. Also, the “Score (activity score of Minimal Effective Concentration, MEC)” value in data set [2] is “Strong (0.01 mM)”. Besides, the “Herbicidal effect, growth application (%)” value in [3] (foliar application, 0.05 mg/pot) was determined as 100%; in [3] (foliar application, 0.50 mg/pot), 100%; in data set [3] (soil application, 0.01 mg/pot) it was 5%; in [3] (soil application, 0.05 mg/pot), 100%; in data set [3] (soil application, 0.50 mg/pot), 100%. For the same compound, the “Average Herbicidal Effect, Chenopodium” value in data set [4] came to 5.0. The “Average Herbicidal Effect, Sinapis” value in data set [5] is on record as 0.0. For the same compound, the “Average Herbicidal Effect, Silybum” value in [6] (post-emergence) was 2.0; in data set [6] (pre-emergence), 2.5. The “Average Herbicidal Effect, Lentils” value in data set [7] (post-emergence) was found to be 2.1; in [7] (pre-emergence) it was 0.0. Moreover, the “Average Herbicidal Effect, Amaranth” value was 2.0 in data set [8] (post-emergence) and 4.0 in data set [8] (pre-emergence). In addition, in data set [9], the “FEC (Fully Effective Concentration)” value amounted to 0.100 mM.

`CC(=O)NCCc1nc(Cl)sc1Cl` [ID 5650, N-[2-(2,5-dichloro-1,3-thiazol-4-yl)ethyl]acetamide] had a melting point of 87 °C.
